In patent US20050027015A1 (priority 2001, published 2005):

Tests used:
[1] = test system: black & white dairy cows; experiment: Experiment 3: three-stage feeding trial, black & white dairy cows; assay type: in vivo; settings: control group, 40 g per cow every other day, versus 20 g daily (2.89 vs 2.73 wt %)
Excerpt: Thirty-two black & white dairy cows were used in the experiment and were randomly divided into four groups, namely test Groups I to III, and a control group. Each group had eight cows. […] There were three stages in the experiment. In the first stage of the experiment, the feed for the test Groups I to III of cows was mixed with the composition such that each cow in the three test groups was fed with 20 g, 30 g and 40 g of the composition respectively daily. No cysteamine-containing composition was mixed in the feed for the control group of cows. The first stage of the experiment lasted for thirty-seven days and was preceded by a three-day adaptation period. During the second stage of the experiment, the composition was not added to the feed for the three test groups of cows. However, each cow in the control group was fed with 20 g of the composition daily via its feed. The second stage of the experiment lasted for seven days. During the third stage of the experiment, the three test groups of cows were fed with the feed mixed with the composition such that 20 g of the composition was taken by each cow daily. Each cow in the control group was fed with 40 g of the composition every other day via the feed. The third stage of the experiment lasted for seven days. The daily milk yield, milk fat content, milk protein content and somatic cells in milk were measured and recorded. […]

[2] = test system: animals; settings: ingesting cysteamine directly; cited from earlier work
[3] = exposed to air or at an elevated temperature; cited from earlier work
[4] = test system: somatostain (SS); settings: pigs, poultry, fowls, goats, rabbits and fish; cited from earlier work

## NCCS [cysteamine]
[1]
  increase of milk protein content: 5.86%
[2]
  gastro side effects: will cause undesirable gastro side effects
[3]
  oxidation: readily oxidized
[4]
  effect on somatostain (SS): can deplete somatostain (SS)
